Experimental data taken from patent US5362634A, “Process for producing A83543 compounds” (DowElanco, priority 1991, dated 1994).
Where two headings read alike, the source gives them in different places.

Key:
Spodoptera eridania = assay: Outdoor pot tests against Southern armyworm; assay type: in vivo
From the text: Table XV compares the effectiveness and persistence of A83543A treatment with that of methomyl in outdoor pot tests against Southern armyworm.

imported cabbage worm = assay: Field trial, imported cabbage worm on sprouting broccoli; assay type: in vivo
Description: (§1) A83543A was evaluated in field trials.

blow fly larvae (LBF) = assay: Sheep systemic test, blow fly larvae; assay type: in vivo
Description: (§2) Blood is drawn from the guinea pigs at 30 minutes except as noted, and the samples of blood are centrifuged. Dental wicks are saturated with the blood serum, and then exposed in Petri dishes to adult stable flies; blow fly larvae are exposed in test tubes. After 24 and 48 hours, the insects are examined, and the number of dead are counted. The results of the tests are recorded as the percent of the insects which are killed.
Tests are carried out in sheep using the test method described supra in the Guinea Pig Test description. Test compound is administered by intraperitoneal or intravenous injection or intraruminally; blood samples are drawn at 24 hours in these tests.

cabbage looper = assay: Field trial, cabbage looper on sprouting broccoli; assay type: in vivo
Description: as §1

adult stable fly (ASF) = assay: Guinea pig systemic test, adult stable fly; assay type: in vivo, Stomoxys calcitrans
Description: Adult guinea pigs are used in this test system. The compounds to be tested are dissolved in aqueous polyvinyl pyrrolidone or in polyethylene glycol 200, and an appropriate amount of the solution is administered either orally or by intraperitoneal injection.
as §2

adult stable fly = assay: Insecticidal assay in blood of sheep challenged with Haemonchus contortus, adult stable fly; assay type: in vivo; design: mortality: dose or concentration left out as unconfirmed; conditions: Stomoxys calcitrans, read-out: Percent Insecticide Mortality; for mortality at 1 mg/kg: iv, 1 × 1 mg/kg IV
Description: as §2
Tests are carried out in sheep using the test method described supra in the Guinea Pig Test description. […]
^b Amount (mg/kg) times number of doses administered
^c Times postadministration at which blood is drawn

CA (cotton aphid) = assay: Greenhouse test against CA; assay type: in vivo; conditions: Aphis gossypii, squash
Description: (§3) Each test compound was formulated by dissolving the compound in an acetone/alcohol (1:1) mixture containing 23 g of "Toximul R" (sulfonate/nonionic emulsifier blend) and 13 g of "Toximul S" (sulfonate/nonionic emulsifier blend) per liter. These mixtures were then diluted with water to give the indicated concentrations.
Two-spotted spider mites (Tetranychus urticae Koch) and cotton or melon aphids (Aphis gossypii Glover) were introduced on squash cotyledons and allowed to establish on both leaf surfaces. Other plants in the same treatment pot were left uninfested. The leaves were then sprayed with 5 mL of test solution using a DeVilbiss atomizing sprayer at 10 psi. Both surfaces of the leaves were covered until runoff and then allowed to dry for one hour. Two uninfested leaves were then excised and placed into a Petri dish containing Southern armyworm (Spodoptera eridania Cramer).
After standard exposure periods, percent mortality was evaluated.

[1] = test system: neonate CBW (cotton bollworm) larvae; assay: Topical test against neonate CBW larvae; assay type: in vivo, Heliothis zea; conditions: 24 h, 1 day
Description: as §3
Additional insects were evaluated using similar formulations and evaluation procedures, with the exceptions noted.
After standard exposure periods, percent mortality was evaluated. The following abbreviations are used:
^b Mean of two replicates tested
^c Treated with 1 mL of formulated A83543A

[2] = 0 h, Day 0, A, 24-hour exposure
[3] = 0 h, Day 0, A, 48-hour exposure
[4] = 24 h, Day 1, A, 24-hour exposure
[5] = 24 h, Day 1, A, 48-hour exposure
[6] = 48 h, Day 2, A, 24-hour exposure
[7] = 72 h, Day 3, A, 24-hour exposure
[8] = 72 h, Day 3, A, 48-hour exposure
[9] = 120 h, Day 5, A, 48-hour exposure

CC[C@H]1CCC[C@H](O[C@H]2CC[C@H](N(C)C)[C@@H](C)O2)[C@@H](C)C(=O)C2=C[C@@H]3[C@@H](C=C[C@@H]4C[C@@H](O[C@@H]5O[C@@H](C)[C@H](OC)[C@@H](OC)[C@H]5OC)C[C@@H]34)[C@@H]2CC(=O)O1 [A83543A] was tested, and the mortality at 63 ppm (Spodoptera eridania; 24 h, 1 day after treatment) was 100%, the mortality at 125 ppm (Spodoptera eridania; 24 h, 1 day after treatment) was 100% and the mortality at 250 ppm (Spodoptera eridania; 24 h, 1 day after treatment) was 100%. For the same molecule, the mortality at 500 ppm (Spodoptera eridania; 24 h, 1 day after treatment) was 100%, the mortality at 63 ppm (Spodoptera eridania; 120 h, 5 days after treatment) was 88% and the mortality at 125 ppm (Spodoptera eridania; 120 h, 5 days after treatment) was 88%. For the same molecule, the mortality at 250 ppm (Spodoptera eridania; 120 h, 5 days after treatment) was 95%, the mortality at 500 ppm (Spodoptera eridania; 120 h, 5 days after treatment) was 100% and the mortality at 63 ppm (Spodoptera eridania; 168 h, 7 days after treatment) was 90%. It also gave a mortality at 125 ppm (Spodoptera eridania; 168 h, 7 days after treatment) of 95%, a mortality at 250 ppm (Spodoptera eridania; 168 h, 7 days after treatment) of 100% and a mortality at 500 ppm (Spodoptera eridania; 168 h, 7 days after treatment) of 100%. It also gave a mortality at 63 ppm (Spodoptera eridania; 336 h, 14 days after treatment) of 5%, a mortality at 125 ppm (Spodoptera eridania; 336 h, 14 days after treatment) of 90% and a mortality at 250 ppm (Spodoptera eridania; 336 h, 14 days after treatment) of 100%. The mortality at 500 ppm (Spodoptera eridania; 336 h, 14 days after treatment) was 100%, the “activity in field trials” value (imported cabbage worm) was “showed activity” and the “LBF activity (% mortality)” value (blow fly larvae (LBF); 1.0 mg/kg IV) was 25%. The “LBF activity (% mortality)” value (blow fly larvae (LBF); 10 mg/kg IP, 1440 min) was 0%, the “LBF activity (% mortality)” value (blow fly larvae (LBF); 10 mg/kg IR, 1440 min) was 0% and the “LBF activity (% mortality)” value (blow fly larvae (LBF); 30 mg/kg IP, 1440 min) was 80%. For the same molecule, the “LBF activity (% mortality)” value (blow fly larvae (LBF); 30 mg/kg IR, 1440 min) was 100%, the “LBF activity (% mortality)” value (blow fly larvae (LBF); 50 mg/kg IP, 1440 min) was 20% and the “LBF activity (% mortality)” value (blow fly larvae (LBF); 50 mg/kg IR, 1440 min) was 100%. The “LBF activity (% mortality)” value (blow fly larvae (LBF); 2 × 25 mg/kg IR, 1440 min) was 100%, the “activity in field trials” value (cabbage looper) was “showed activity” and the “% Activity ASF” value (adult stable fly (ASF); 10 mg/kg IP, bled 30 min) was 0%. For the same molecule, the “% Activity ASF” value (adult stable fly (ASF); 10 mg/kg IP, bled 5 hr) was 0%, the “% Activity ASF” value (adult stable fly (ASF); 10 mg/kg IP, bled 24 hr) was 0% and the “% Activity ASF” value (adult stable fly (ASF); 20 mg/kg IP, bled 30 min) was 0%. For the same molecule, the “% Activity ASF” value (adult stable fly (ASF); 20 mg/kg IP, bled 5 hr) was 0%, the “% Activity ASF” value (adult stable fly (ASF); 20 mg/kg IP, bled 24 hr) was 0% and the “% Activity ASF” value (adult stable fly (ASF); 30 mg/kg IP, bled 30 min) was 50%. The “% Activity ASF” value (adult stable fly (ASF); 30 mg/kg IP, bled 5 hr) was 0%, the “% Activity ASF” value (adult stable fly (ASF); 30 mg/kg IP, bled 24 hr) was 0% and the “% Activity ASF” value (adult stable fly (ASF); 50 mg/kg IP, bled 30 min) was 100%. The “% Activity ASF” value (adult stable fly (ASF); 50 mg/kg IP, bled 5 hr) was 40%, the “% Activity ASF” value (adult stable fly (ASF); 50 mg/kg IP, bled 24 hr) was 30% and the “% Activity ASF” value (adult stable fly (ASF); 50 mg/kg oral, bled 5 hr) was 60%. The “% Activity ASF” value (adult stable fly (ASF); 50 mg/kg oral, bled 24 hr) was 0%, the mortality at 10 mg/kg (adult stable fly (ASF); Stomoxys calcitrans, in Cavia porcellus, 10 mg/kg IP) was 0% and the mortality at 20 mg/kg (adult stable fly (ASF); Stomoxys calcitrans, in Cavia porcellus, 20 mg/kg IP) was 0%. For the same molecule, the mortality at 30 mg/kg (adult stable fly (ASF); Stomoxys calcitrans, in Cavia porcellus, 30 mg/kg IP) was 50%, the mortality at 50 mg/kg (adult stable fly (ASF); Stomoxys calcitrans, in Cavia porcellus, 50 mg/kg IP) was 100% and the mortality at 50 mg/kg (adult stable fly (ASF); Stomoxys calcitrans, in Cavia porcellus, 50 mg/kg OR (oral), 5-hr blood sample) was 60%. The mortality (adult stable fly; [2]) was 0%, the mortality (adult stable fly; [3]) was 0% and the mortality (adult stable fly; 5 h, A, 24-hour exposure) was 10%. For the same molecule, the mortality (adult stable fly; 24 h, 35 min, A, 24-hour exposure) was 10%, the mortality (adult stable fly; 24 h, 5 hr, A, 24-hour exposure) was 10% and the mortality (adult stable fly; 24 h, Day 0, A, 24-hour exposure) was 0%. The mortality (adult stable fly; [4]) was 10%, the mortality at 50 mg/kg (adult stable fly; [4]) was 0% and the mortality (adult stable fly; [5]) was 90%. It also gave a mortality at 50 mg/kg (adult stable fly; [5]) of 60%, a mortality at 2 mg/kg (adult stable fly; 48 h, 25 × 2 mg/kg IR, Day 2, A, 24-hour exposure) of 20% and a mortality (adult stable fly; [6]) of 20%. It also gave a mortality (adult stable fly; [7]) of 0%, a mortality (adult stable fly; [8]) of 70% and a mortality (adult stable fly; [9]) of 30%. It also gave a mortality at 50 mg/kg (adult stable fly; ip, 0 h, Day 0, A, 48-hour exposure) of 20%, a mortality at 50 mg/kg (adult stable fly; ip, 35 min, A, 48-hour exposure) of 0% and a mortality at 50 mg/kg (adult stable fly; ip, 5 h, A, 48-hour exposure) of 10%. The mortality at 50 mg/kg (adult stable fly; ip, 24 h, 35 min, A, 24-hour exposure) was 0%, the mortality at 50 mg/kg (adult stable fly; ip, 24 h, 5 hr, A, 24-hour exposure) was 0% and the mortality at 50 mg/kg (adult stable fly; ip, 24 h, Day 0, A, 24-hour exposure) was 0%. It also gave a mortality at 50 mg/kg (adult stable fly; ip, 24 h, Day 1, A, 24-hour exposure) of 0%, a mortality at 50 mg/kg (adult stable fly; ip, 24 h, Day 1, A, 48-hour exposure) of 0% and a mortality at 50 mg/kg (adult stable fly; ip, 24 h, Day 2, A, 24-hour exposure) of 10%. The mortality at 50 mg/kg (adult stable fly; ip, 24 h, Day 3, A, 24-hour exposure) was 0%, the mortality at 50 mg/kg (adult stable fly; ip, 24 h, Day 4, A, 24-hour exposure) was 10% and the mortality at 50 mg/kg (adult stable fly; ip, 24 h, Day 5, A, 24-hour exposure) was 0%. The mortality at 50 mg/kg (adult stable fly; ip, 48 h, Day 2, A, 48-hour exposure) was 30%, the mortality at 50 mg/kg (adult stable fly; ip, 72 h, Day 3, A, 48-hour exposure) was 10% and the mortality at 50 mg/kg (adult stable fly; ip, 96 h, Day 4, A, 48-hour exposure) was 20%. The mortality at 50 mg/kg (adult stable fly; ip, 120 h, Day 5, A, 48-hour exposure) was 0%, the mortality at 1 mg/kg (adult stable fly; [2]) was 0% and the mortality at 1 mg/kg (adult stable fly; [3]) was 0%. It also gave a mortality at 1 mg/kg (adult stable fly; 35 min, 35 min, A, 24-hour exposure) of 10%, a mortality at 1 mg/kg (adult stable fly; 35 min, 35 min, A, 48-hour exposure) of 10% and a mortality at 1 mg/kg (adult stable fly; 5 h, 5 hr, A, 24-hour exposure) of 0%. The mortality at 1 mg/kg (adult stable fly; 5 h, 5 hr, A, 48-hour exposure) was 20%, the mortality at 1 mg/kg (adult stable fly; [4]) was 0% and the mortality at 1 mg/kg (adult stable fly; [5]) was 0%. It also gave a mortality at 1 mg/kg (adult stable fly; [6]) of 0%, a mortality at 1 mg/kg (adult stable fly; 48 h, Day 2, A, 48-hour exposure) of 0% and a mortality at 1 mg/kg (adult stable fly; [7]) of 0%. For the same molecule, the mortality at 1 mg/kg (adult stable fly; [8]) was 0%, the mortality at 1 mg/kg (adult stable fly; 96 h, Day 4, A, 24-hour exposure) was 0% and the mortality at 1 mg/kg (adult stable fly; 96 h, Day 4, A, 48-hour exposure) was 0%. It also gave a mortality at 1 mg/kg (adult stable fly; 120 h, Day 5, A, 24-hour exposure) of 0%, a mortality at 1 mg/kg (adult stable fly; [9]) of 0% and an inhibition at 25 ppm (CA (cotton aphid); 25 ppm, second series) of 0%. The inhibition at 50 ppm (CA (cotton aphid); first series) was 0%, the inhibition at 50 ppm (CA (cotton aphid); second series) was 40% and the inhibition at 100 ppm (CA (cotton aphid); first series) was 0%. The inhibition at 100 ppm (CA (cotton aphid); second series) was 80%, the inhibition at 0.5 ppm ([1]; 0.50 ppm, second series) was 10% and the inhibition at 1 ppm ([1]; first series, mean of two replicates) was 20%. The inhibition at 1 ppm ([1]; second series) was 40%, the inhibition at 5 ppm ([1]; first series) was 100% and the inhibition at 5 ppm ([1]; second series) was 80%. It also gave an inhibition at 10 ppm ([1]; first series) of 100%, an inhibition at 10 ppm ([1]; second series) of 100% and an inhibition at 50 ppm ([1]; first series) of 100%. The inhibition at 50 ppm ([1]; second series) was 100%, the inhibition at 100 ppm ([1]; first series) was 100% and the inhibition at 100 ppm ([1]; second series) was 70%.
